Measurements published in ChEMBL document CHEMBL1201862, “PubChem BioAssay data set” (2004).
Values joined by “and” are separate entries in the source; they are usually repeats but may differ in a detail not shown here. Identical values can stand only once.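 1) Cells in 96-well plates. 2) Compound, 48 h, 5 concentrations. 3) Linear interpolation between surrounding doses. 4) Unreached endpoint = highest concentration. GI50: concentration for 50% inhibition of growth.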 Active and inactive are the calls of the source. No stated cut-off is given here; in the data, active = GI50 up to about 1.1 µM and inactive = higher.

Legend:
Assay in all cases: DTP human tumour cell line panel, 48 h
786-0 = tested on: 786-0
A498 = tested on: A498
ACHN = tested on: ACHN
CAKI-1 = tested on: CAKI-1
CCRF-CEM = tested on: CCRF-CEM
COLO 205 = tested on: COLO 205
DLD-1 = tested on: DLD-1
DMS-114 = tested on: DMS-114
DMS-273 = tested on: DMS-273
EKVX = tested on: EKVX
HCC 2998 = tested on: HCC 2998
HCT-15 = tested on: HCT-15
HL-60 = tested on: HL-60
HOP-18 = tested on: HOP-18
HOP-92 = tested on: HOP-92
HT-29 = tested on: HT-29
IGROV-1 = tested on: IGROV-1
K562 = tested on: K562
KM12 = tested on: KM12
LOX IMVI = tested on: LOX IMVI
LXFL 529 = tested on: LXFL 529
M14 = tested on: M14
M19-MEL = tested on: M19-MEL
MOLT-4 = tested on: MOLT-4
Malme-3M = tested on: Malme-3M
NCI-H23 = tested on: NCI-H23
NCI-H460 = tested on: NCI-H460
NCI-H522 = tested on: NCI-H522
OVCAR-3 = tested on: OVCAR-3
OVCAR-4 = tested on: OVCAR-4
OVCAR-5 = tested on: OVCAR-5
OVCAR-8 = tested on: OVCAR-8
RPMI-8226 = tested on: RPMI-8226
SF-268 = tested on: SF-268
SF-539 = tested on: SF-539
SK-MEL-28 = tested on: SK-MEL-28
SK-MEL-2 = tested on: SK-MEL-2
SK-MEL-5 = tested on: SK-MEL-5
SK-OV-3 = tested on: SK-OV-3
SN12C = tested on: SN12C
SNB-19 = tested on: SNB-19
SNB-75 = tested on: SNB-75
SW-620 = tested on: SW-620
TK-10 = tested on: TK-10
U-251 = tested on: U-251
UACC-257 = tested on: UACC-257
UACC-62 = tested on: UACC-62
UO-31 = tested on: UO-31
XF498 = tested on: XF498
A549 = tested on: A549
HCT-116 = tested on: HCT-116
HOP-62 = tested on: HOP-62
KM-20L2 = tested on: KM-20L2
NCI-H226 = tested on: NCI-H226
RXF 393 = tested on: RXF 393
SF-295 = tested on: SF-295
SNB-78 = tested on: SNB-78

Measured: GI50

NCCCNCCSSC/C=C\CSSCCNCCCN
> 100 µM and 63.7 µM: HCT-15
inactive: 786-0 > 100 µM | A498 > 100 µM | ACHN > 100 µM | CAKI-1 36.1 µM and 38.5 µM | CCRF-CEM 3.75 µM and 4.3 µM | COLO 205 29.5 µM and 45.6 µM | DLD-1 37.5 µM and 60.1 µM | DMS-114 67 µM and 44.1 µM | DMS-273 43.1 µM and 44.8 µM | EKVX > 100 µM | HCC 2998 90.6 µM | HL-60 16.6 µM and 19.2 µM | HOP-18 > 100 µM | HOP-92 18.9 µM and 23 µM | HT-29 14.2 µM and 15.3 µM | IGROV-1 > 100 µM | K562 19.2 µM and 18.4 µM | KM12 17.7 µM and 18.9 µM | LOX IMVI 45.2 µM and 43.3 µM | LXFL 529 34.9 µM and 24.9 µM | M14 34 µM and 49 µM | M19-MEL 64.6 µM | MOLT-4 20.4 µM and 12.3 µM | Malme-3M 78 µM | NCI-H23 > 100 µM | NCI-H460 > 100 µM | NCI-H522 10.3 µM and 13.2 µM | OVCAR-3 40.5 µM and 42 µM | OVCAR-4 51.8 µM and 58.2 µM | OVCAR-5 > 100 µM | OVCAR-8 > 100 µM | RPMI-8226 26.9 µM and 28.6 µM | SF-268 > 100 µM and 57.8 µM | SF-539 72.4 µM and 89.3 µM | SK-MEL-28 > 100 µM | SK-MEL-2 50.1 µM | SK-MEL-5 41.1 µM and 62.1 µM | SK-OV-3 > 100 µM | SN12C 75.7 µM and 44.4 µM | SNB-19 > 100 µM | SNB-75 39.5 µM and 37.3 µM | SW-620 44.4 µM and 31.1 µM | TK-10 > 100 µM and 60.3 µM | U-251 > 100 µM and 53.8 µM | UACC-257 30.9 µM and 17.1 µM | UACC-62 36.3 µM and 52.8 µM | UO-31 65 µM and 63.4 µM | XF498 52.6 µM and 93.5 µM

CCOc1ccccc1NC(=O)C(=O)CC(=O)c1c(C)[n+]([O-])c2ccccc2[n+]1[O-]
inactive: 786-0 > 100 µM | A498 > 100 µM | A549 > 100 µM | ACHN > 100 µM | CAKI-1 > 100 µM | CCRF-CEM 52.8 µM | COLO 205 35.2 µM | DMS-114 > 100 µM | DMS-273 > 100 µM | EKVX > 100 µM | HCC 2998 > 100 µM | HCT-116 > 100 µM | HL-60 > 100 µM | HOP-18 46.5 µM | HOP-62 > 100 µM | HOP-92 > 100 µM | HT-29 > 100 µM | IGROV-1 > 100 µM | K562 > 100 µM | KM-20L2 75.7 µM | KM12 83.9 µM | LOX IMVI 99.3 µM | LXFL 529 > 100 µM | M14 > 100 µM | M19-MEL 50.9 µM | MOLT-4 > 100 µM | Malme-3M > 100 µM | NCI-H226 > 100 µM | NCI-H23 65 µM | NCI-H460 81.7 µM | NCI-H522 84.5 µM | OVCAR-3 25.2 µM | OVCAR-4 > 100 µM | OVCAR-5 > 100 µM | OVCAR-8 > 100 µM | RPMI-8226 > 100 µM | RXF 393 > 100 µM | SF-268 > 100 µM | SF-295 > 100 µM | SF-539 > 100 µM | SK-MEL-28 > 100 µM | SK-MEL-2 > 100 µM | SK-MEL-5 43.9 µM | SK-OV-3 > 100 µM | SN12C > 100 µM | SNB-19 69.2 µM | SNB-75 > 100 µM | SNB-78 > 100 µM | SW-620 > 100 µM | TK-10 > 100 µM | U-251 > 100 µM | UACC-257 > 100 µM | UACC-62 > 100 µM | UO-31 > 100 µM
67.1 µM: HCT-15

O=c1c2cc(O)ccc2n2nnc3ccc(NCCNCCO)c1c32
inactive: 786-0 3.55 µM | CAKI-1 4.2 µM | COLO 205 4.26 µM | DMS-114 1.71 µM | EKVX 14.5 µM | HCT-116 2.65 µM | HOP-18 24.3 µM | HOP-92 2.06 µM | HT-29 6.62 µM | KM12 11.2 µM | LOX IMVI 1.71 µM | LXFL 529 1.86 µM | NCI-H226 2.31 µM | NCI-H23 5.92 µM | OVCAR-4 3.84 µM | OVCAR-8 1.86 µM | RPMI-8226 14.1 µM | SF-268 1.59 µM | SF-295 11.7 µM | SF-539 3.85 µM | SK-OV-3 5.4 µM | SNB-19 4.85 µM | U-251 1.82 µM | UO-31 16.3 µM
49.1 µM: HCT-15
